Patent US20060111778A1, “Methods of promoting healing of cartilage defects and method of causing stem cells to differentiate by the articular chondrocyte pathway” (priority 2004, published 2006)

Test system: bone marrow-derived stem cells (MSCs)
Test: culture of bone marrow-derived stem cells (MSCs) with cartilage fragments, with or without TGF-β1
Assay type: cell-based, horse
Experimental: Bone marrow aspirates were obtained from the tuber coxae of 3 normal horses (3-years-old) to attain bone marrow-derived stem cells (MSCs). Aspirates were cultured in media, pre-plated for purification, and grown in monolayer culture flasks for 2-3 weeks until a confluent monolayer culture of MSCs was obtained. Confluent monolayers were expanded for another 2-3 weeks until a minimum of 26×10^6 cells were attained.
Cartilage was collected sterilely from the same horses and freeze-thawed 3 times to ensure all native cells within the cartilage were dead. Prior to the start of the experiment the cartilage was placed in liquid nitrogen and pulverized until it became a fine powder. Then the cartilage was weighed into aliquots to make 2.5% and 10% of cartilage weight to volume in media.
A 24-well, non-adherent plate contained treatment groups of 1×10^6 cells only, 1×10^6 cells with 2.5% cartilage, 1×10^6 cells with 10% cartilage, 2.5% cartilage only, and 10% cartilage only to make 5 treatment groups. The cells-only treatment group was the baseline positive control. The 2.5% and 10% cartilage fragments without cells served as the negative controls and, if necessary, for baseline values of proteoglycan and DNA content of the matrix provided. […]

Substance: TGF-β1: transforming growth factor β type 1, growth factor supplemented to media at 5 ng/ml
- MSC survival and chondrogenesis: necessary
- DNA content by day 14 (day 14, 5 ng/ml TGF-β1): significantly increasing
